Data on ten compounds can be found in ChEMBL document CHEMBL5154884, “Discovery of a Novel Src Homology-2 Domain Containing Protein Tyrosine Phosphatase-2 (SHP2) and Cyclin-Dependent Kinase 4 (CDK4) Dual Inhibitor for the Treatment of Triple-Negative Breast Cancer” (J Med Chem, 2022).

One assay has as its target CDK4/Cyclin D3 (Homo sapiens, UniProt P11802). Put plainly: Inhibition of recombinant N-terminal GST/His6-fusion tagged human CDK4/Cyclin D3 expressed in Sf9 insect cells using 5-FAM-IPTSPITTTYFFFKKK as substrate preincubated for 10 mins followed by substrate addition and incubated for 3 hrs in presence of ATP by caliper mobility shift analysis.
Assay [1] has as its system EMT6. Put plainly: Antiproliferative activity against mouse EMT6 cells assessed as inhibition of cell growth incubated for 48 hrs by MTT assay. The format is functional, cell-based. (Tetrazolium assays rely on reduction of a dye to a coloured formazan, in cell work by metabolically active cells.)
Assay [2] concerns MDA-MB-468. Put plainly: Antiproliferative activity against human MDA-MB-468 cells assessed as inhibition of cell growth incubated for 48 hrs by MTT assay. It is filed as functional, cell-based.
The test system of assay [3] is MDA-MB-231. The assay is described as follows: Antiproliferative activity against human MDA-MB-231 cells assessed as inhibition of cell growth incubated for 48 hrs by MTT assay. It is filed as functional, cell-based.
The target of assay [4] is T1, Tyrosine-protein phosphatase non-receptor type 11 (Homo sapiens, UniProt Q06124).
T1 sequence (Q06124 whole entry): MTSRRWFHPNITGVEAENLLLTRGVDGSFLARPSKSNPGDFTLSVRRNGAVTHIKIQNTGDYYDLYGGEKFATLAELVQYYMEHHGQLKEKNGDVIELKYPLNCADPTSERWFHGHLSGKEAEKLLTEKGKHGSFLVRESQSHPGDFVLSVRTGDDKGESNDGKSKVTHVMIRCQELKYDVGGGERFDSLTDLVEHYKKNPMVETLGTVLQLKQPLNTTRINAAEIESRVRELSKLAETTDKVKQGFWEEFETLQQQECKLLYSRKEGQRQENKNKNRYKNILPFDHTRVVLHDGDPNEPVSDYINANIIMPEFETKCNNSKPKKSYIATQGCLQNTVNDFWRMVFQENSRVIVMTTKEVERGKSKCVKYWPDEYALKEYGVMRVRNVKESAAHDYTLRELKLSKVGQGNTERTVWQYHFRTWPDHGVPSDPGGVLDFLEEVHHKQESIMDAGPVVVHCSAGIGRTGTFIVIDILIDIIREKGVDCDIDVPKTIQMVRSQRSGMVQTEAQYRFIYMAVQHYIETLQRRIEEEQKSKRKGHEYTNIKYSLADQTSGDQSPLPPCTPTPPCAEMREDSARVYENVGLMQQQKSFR
Put plainly: Inhibition of SHP2 (unknown origin) using DiFMUP as substrate incubated for 60 mins followed by substrate addition for 30 mins by microplate reader method.

Assay [5] has as its system MDA-MB-231. The assay is described as follows: Induction of apoptosis in human MDA-MB-231 cells assessed as viable cells at 3 uM measured after 48 hrs by Annexin V-FITC/PI staining based flow cytometric analysis (reference value: 98.04%). The conditions noted are these: read-out: Activity. It is filed as functional.
Assay [6] has as its system MDA-MB-231. The assay is described as follows: Induction of apoptosis in human MDA-MB-231 cells assessed as necrotic cells at 3 uM incubated for 48 hrs in presence of abemaciclib by Annexin V-FITC/PI staining based flow cytometric analysis (reference value: 0.58%). The format is functional.
Assay [7] concerns MDA-MB-231. Put plainly: Induction of apoptosis in human MDA-MB-231 cells assessed as early apoptotic cells at 3 uM incubated for 48 hrs in presence of abemaciclib by Annexin V-FITC/PI staining based flow cytometric analysis (reference value: 0.32%). The format is functional. Background: A flow cytometer gives signals particle by particle.
Assay [8] concerns MDA-MB-231. The assay is described as follows: Induction of cell cycle arrest in human MDA-MB-231 cells assessed as accumulation of cells in G2/M phase at 3 uM incubated for 48 hrs by RNase/propidium iodide staining based flow cytometry analysis (reference value: 2.7%). The format is functional.
Assay [9] has as its system MDA-MB-231. Put plainly: Induction of apoptosis in human MDA-MB-231 cells assessed as necrotic cells at 3 uM measured after 48 hrs by Annexin V-FITC/PI staining based flow cytometric analysis (reference value: 0.58%). The format is functional.
Assay [10] deals with MDA-MB-231. The assay is described as follows: Induction of cell cycle arrest in human MDA-MB-231 cells assessed as accumulation of cells in G0/G1 phase at 3 uM incubated for 48 hrs in presence of abemaciclib by RNase/propidium iodide staining based flow cytometry analysis (reference value: 26.2%). The format is functional.
Assay [11] deals with MDA-MB-231. The assay is described as follows: Induction of apoptosis in human MDA-MB-231 cells assessed as early apoptotic cells at 3 uM measured after 48 hrs by Annexin V-FITC/PI staining based flow cytometric analysis (reference value: 0.32%). It is filed as functional.
The test system of assay [12] is MDA-MB-231.
For assay [13], the system named is MDA-MB-468.
The subject of assay [14] is MDA-MB-231. Put plainly: Induction of apoptosis in human MDA-MB-231 cells assessed as viable cells at 3 uM incubated for 48 hrs in presence of abemaciclib by Annexin V-FITC/PI staining based flow cytometric analysis (reference value: 98.04%). It is filed as functional. The conditions noted are these: read-out: Activity.
In assay [15] the test system is EMT6.
Assay [16] deals with MDA-MB-231. The assay is described as follows: Induction of cell cycle arrest in human MDA-MB-231 cells assessed as accumulation of cells in S phase at 3 uM incubated for 48 hrs by RNase/propidium iodide staining based flow cytometry analysis (reference value: […]). It is filed as functional.
Assay [17] concerns MDA-MB-231. Put plainly: Induction of apoptosis in human MDA-MB-231 cells assessed as late apoptotic cells at 3 uM incubated for 48 hrs in presence of abemaciclib by Annexin V-FITC/PI staining based flow cytometric analysis (reference value: 1.06%). It is filed as functional.
Assay [18] deals with EMT6. The assay is described as follows: Antitumor activity against mouse EMT6 cells implanted in BALB/c mouse syngenic model assessed as tumor growth inhibition at 40 mg/kg, po qd and measured after 18 days relative to control. It is filed as functional. The following applies: EMT6, 432 h, time 18 day, read-out: TGI.
Assay [19] relates to MDA-MB-231. The assay is described as follows: Induction of apoptosis in human MDA-MB-231 cells assessed as late apoptotic cells at 3 uM measured after 48 hrs by Annexin V-FITC/PI staining based flow cytometric analysis (reference value: 1.06%). It is filed as functional.
Assay [20] relates to EMT6. Put plainly: Antitumor activity in mouse EMT6 cells implanted in BALB/c syngenic mouse model assessed as tumor growth inhibition at 40 mg/kg, po qd in presence of abemaciclib measured after 18 days relative to control. The format is functional. The following applies: EMT6, 432 h, time 18 day, read-out: TGI.
The test system of assay [21] is MDA-MB-231. The assay is described as follows: Induction of cell cycle arrest in human MDA-MB-231 cells assessed as accumulation of cells in S phase at 3 uM incubated for 48 hrs in presence of abemaciclib by RNase/propidium iodide staining based flow cytometry analysis (reference value: […]). The format is functional.
Assay [22] has as its system MDA-MB-231. Put plainly: Induction of cell cycle arrest in human MDA-MB-231 cells assessed as accumulation of cells in G0/G1 phase at 3 uM incubated for 48 hrs by RNase/propidium iodide staining based flow cytometry analysis (reference value: 26.2%). The format is functional.
The test system of assay [23] is MDA-MB-231. The assay is described as follows: Induction of cell cycle arrest in human MDA-MB-231 cells assessed as accumulation of cells in G2/M phase at 3 uM incubated for 48 hrs in presence of abemaciclib by RNase/propidium iodide staining based flow cytometry analysis (reference value: 2.7%). It is filed as functional.

Sequence of CDK4/Cyclin D3 (P11802 whole entry, the tested form may be a part): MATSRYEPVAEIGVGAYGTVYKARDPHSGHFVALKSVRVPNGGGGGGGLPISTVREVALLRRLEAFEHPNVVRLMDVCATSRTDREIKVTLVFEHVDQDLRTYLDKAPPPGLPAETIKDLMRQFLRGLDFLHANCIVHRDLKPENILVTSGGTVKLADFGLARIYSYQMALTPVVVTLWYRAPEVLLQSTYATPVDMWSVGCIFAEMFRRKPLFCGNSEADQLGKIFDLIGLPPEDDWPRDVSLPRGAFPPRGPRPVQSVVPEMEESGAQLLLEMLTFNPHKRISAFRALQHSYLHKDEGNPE
Sequence of CDK4/Cyclin D3 (P30281 whole entry, further chain, the tested form may be a part): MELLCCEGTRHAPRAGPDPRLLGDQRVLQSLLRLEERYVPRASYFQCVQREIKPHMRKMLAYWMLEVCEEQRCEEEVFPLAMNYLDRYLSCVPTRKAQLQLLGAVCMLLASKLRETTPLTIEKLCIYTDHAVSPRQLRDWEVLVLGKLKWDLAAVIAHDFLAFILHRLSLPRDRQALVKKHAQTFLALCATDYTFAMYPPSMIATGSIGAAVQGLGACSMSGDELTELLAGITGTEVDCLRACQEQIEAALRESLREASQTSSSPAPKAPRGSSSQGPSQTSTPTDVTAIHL

A word on the IC50: it is the concentration at which inhibition is half-maximal. As to `Cc1nc2c(F)cc(-c3nc(Nc4nccc(Sc5cnc(N6CCC7(CC6)Cc6ccccc6[C@H]7N)cn5)c4Cl)ncc3F)cc2n1C(C)C`, the IC50 at CDK4/Cyclin D3 stood at 95.9 nM; with EMT6 [1] (Mus musculus, EMT6, 48 h), 1070 nM; in the assay on MDA-MB-468 [2] (Homo sapiens, MDA-MB-468, 48 h), 3.9 µM; in the assay with MDA-MB-231 [3] (Homo sapiens, MDA-MB-231, 48 h), 4.44 µM; in assay [4] it was 8.2 nM.
As for `C[C@@H]1OCC2(CCN(c3cnc(Sc4ccnc(N)c4Cl)c(N)n3)CC2)[C@@H]1N` [BATOPROTAFIB], the viability at 3 µM was found to be 82.5% with MDA-MB-231 [5] and 78.5% in the assay on MDA-MB-231 [14]. The Activity was 0.95% with MDA-MB-231 [6]; 8.17% in the assay with MDA-MB-231 [7]; 2.6% in the assay on MDA-MB-231 [8]; 1.07% with MDA-MB-231 [9]; 44.8% in the assay on MDA-MB-231 [10]; 7.32% in the assay with MDA-MB-231 [11]. In addition, the Activity amounted to 56.7% in the assay with MDA-MB-231 [16]; 12.42% with MDA-MB-231 [17]; 9.13% with MDA-MB-231 [19]; 53.2% in the assay with MDA-MB-231 [21]; 40.7% in the assay on MDA-MB-231 [22]; 2% in the assay with MDA-MB-231 [23]. Also, the 50% inhibitory concentration (IC50) was 7030 nM in the assay with EMT6 [1] (emt6); 12.9 µM in the assay with MDA-MB-231 [12]; 3.11 µM in the assay with MDA-MB-468 [13]; over 20 µM in the assay with MDA-MB-468 [2] (mda-mb-468); 2490 nM in the assay with EMT6 [15]; over 20 µM in the assay on MDA-MB-231 [3] (mda-mb-231). Besides, the inhibition in vivo at 40 mg/kg with EMT6 [18] amounted to 60%; in the assay on EMT6 [20] it was 74%.
As for `CN(C)C(=O)c1cc2cnc(Nc3ccc(Sc4cnc(N5CCC(C)(N)CC5)cn4)cn3)nc2n1C1CCCC1`, the IC50 on CDK4/Cyclin D3 is 8.1 nM.
As for `CN(C)C(=O)c1cc2cnc(Nc3ccc(Sc4cnc(N5CCC6(CC5)Cc5ccccc5[C@H]6N)cn4)c(Cl)c3)nc2n1C1CCCC1`, the figures for the IC50 (on CDK4/Cyclin D3; in assay [4]) were over 1000 nM and 52.1 nM, respectively.
Regarding `Cc1nc2c(F)cc(-c3nc(Nc4cc(Sc5cnc(N6CCC7(CC6)CO[C@@H](C)[C@H]7N)cn5)ccn4)ncc3F)cc2n1C(C)C`, the IC50 on CDK4/Cyclin D3 came to 16.1 nM; in the assay on EMT6 [1] (Mus musculus, EMT6, 48 h) it was 1100 nM; in the assay with MDA-MB-468 [2] (Homo sapiens, MDA-MB-468, 48 h), 9.62 µM; in the assay with MDA-MB-231 [3] (Homo sapiens, MDA-MB-231, 48 h), 5.13 µM; in assay [4], 47.2 nM.
The like results for `Cc1nc2c(F)cc(-c3nc(Nc4cccc(Sc5cnc(N6CCC7(CC6)CO[C@@H](C)[C@H]7N)cn5)c4Cl)ncc3F)cc2n1C(C)C` were, in that order, 6.7 nM, 580 nM, 9.1 µM, 4.55 µM and 16.5 nM.
On to `Cc1nc2c(F)cc(-c3nc(Nc4cc(Cl)c(Sc5cnc(N6CCC7(CC6)CO[C@@H](C)[C@H]7N)cn5)cn4)ncc3F)cc2n1C(C)C`, for which the 50% inhibitory concentration (IC50) at CDK4/Cyclin D3 is 8.8 nM.
For `CN(C)C(=O)c1cc2cnc(Nc3ccc(Sc4cnc(N5CCC6(CC5)Cc5ccccc5[C@H]6N)cn4)c(Cl)n3)nc2n1C1CCCC1`, the IC50 on CDK4/Cyclin D3 amounted to 519 nM; in [4], 34.1 nM.
Turning to `CCN1CCN(Cc2ccc(Nc3ncc(F)c(-c4cc(F)c5nc(C)n(C(C)C)c5c4)n3)nc2)CC1` [ABEMACICLIB], the viability at 3 µM in the assay with MDA-MB-231 [5] was 86%. Moreover, the Activity with MDA-MB-231 [8] was 2.7%; in the assay with MDA-MB-231 [9], 1.42%; in the assay with MDA-MB-231 [11], 5.86%; in the assay with MDA-MB-231 [16], 60.2%; with MDA-MB-231 [19] it was 6.73%; in the assay on MDA-MB-231 [22] it was 37.1%. In addition, the IC50 in the assay on EMT6 [1] (Mus musculus, EMT6, 48 h) was 4180 nM; in the assay with MDA-MB-468 [2] (Homo sapiens, MDA-MB-468, 48 h), over 20 µM; with MDA-MB-231 [3] (Homo sapiens, MDA-MB-231, 48 h), over 20 µM. Moreover, the inhibition in vivo at 40 mg/kg in the assay with EMT6 [18] was 35%.
Take `Cc1nc2c(F)cc(-c3nc(Nc4ccc(Sc5cnc(N6CCC7(CC6)CO[C@@H](C)[C@H]7N)cn5)c(Cl)c4)ncc3F)cc2n1C(C)C`: the concentration for half-maximal inhibition (IC50) is 7 nM at CDK4/Cyclin D3; 1660 nM in the assay on EMT6 [1] (Mus musculus, EMT6, 48 h); 10.3 µM in the assay with MDA-MB-468 [2] (Homo sapiens, MDA-MB-468, 48 h); 3.24 µM in the assay on MDA-MB-231 [3] (Homo sapiens, MDA-MB-231, 48 h).
